We go through 34 compounds from ChEMBL document CHEMBL1149555, “Synthesis and antiproliferative activity of thiazolidine analogs for melanoma” (Bioorg Med Chem Lett, 2007).

A short description of assay [1]: Antiproliferative activity against human fibroblasts after 48 hrs by SRB assay. The assay is classed as cell-based. The conditions noted are these: Fibroblast.
Assay [2] in a line: Antiproliferative activity against human SK-MEL-188 cells after 48 hrs by SRB assay. The assay is classed as functional, cell-based. The note with it: SK-MEL-188, 48 h.
Assay [3] in a line: Antiproliferative activity against human WM164 cells after 48 hrs by SRB assay. The assay is classed as functional, cell-based. The note with it: WM164, 48 h. A general note: In SRB staining, fixed cells bind dye roughly in proportion to their protein.

In general, IC50 refers to the midpoint of a concentration-inhibition curve. Lower therefore signals greater potency. Consider `CCCCCCCCCCCCCCCCNC(=O)[C@@H]1CSC(c2cc(OC)c(OC)c(OC)c2)N1` (stereo partly specified), for which the 50% inhibitory concentration (IC50) in assay [1] is 2400 nM; in assay [2], 1800 nM; in assay [3], 700 nM.
For `CCCCCCCCCCCCCCNC(=O)[C@@H]1CSC(c2ccc(OC)c(OC)c2)N1` (stereo partly specified), in that order: 2800 nM, 1500 nM and 800 nM.
Turning to `CCCCCCCCCCCCNC(=O)[C@@H]1CSC(c2ccc(N)cc2)N1` (stereo partly specified), the results for the IC50 in assay [1], in assay [2] and in assay [3] were 4100 nM, 2200 nM and 1400 nM, respectively.
For `CCCCCCCCCCCCCCNC(=O)[C@H]1CSC(c2cc(OC)c(OC)c(OC)c2)N1` (stereo partly specified), in that order: 4100 nM, 2600 nM and 1100 nM.
For `CCCCCCCCCCCCCCCCNC(=O)[C@H]1CSC(c2ccc(NC(C)=O)cc2)N1` (stereo partly specified), in that order: 22600 nM, 3200 nM and 1400 nM.
For `CCCCCCCCCCCCCCNC(=O)[C@@H]1CSC(c2ccccc2)=N1` the same measures were over 50000 nM, 42100 nM and over 50000 nM.
`CCCCCCCCCCCCCCNC(=O)[C@@H]1CSC(c2ccc(OC)c(OC)c2)=N1`: the half-inhibitory concentration (IC50) in assay [1] is over 50000 nM; in assay [2], 19100 nM; in assay [3], 42900 nM.
Take `CCCCCCCCCCCCCCCCNC(=O)[C@@H]1CSC(c2ccc(NC(C)=O)cc2)N1C` (stereo partly specified): the IC50 in assay [1] is over 100000 nM; in assay [2], 29100 nM; in assay [3], over 100000 nM.
With `COc1cc(C2SCC3C(=O)N4C(CSC4c4cc(OC)c(OC)c(OC)c4)C(=O)N32)cc(OC)c1OC` (stereo unspecified), the IC50 in assay [1], in assay [2] and in assay [3] was over 50000 nM throughout.
With `CCCCCCCCCCCCNC(=O)[C@@H]1CSC(c2ccc(NC(C)=O)cc2)N1` (stereo partly specified), the figures for the IC50 in assay [1], in assay [2] and in assay [3] were 3500 nM, 2400 nM and 1200 nM, respectively.
For `CCCCCCCCCCCCCCCCNC(=O)[C@@H]1CSC(c2ccccc2)N1` (stereo partly specified) the same measures were 2200 nM, 1900 nM and 700 nM.
`CCCCCCCCCCNC(=O)[C@@H]1CSC(c2cc(OC)c(OC)c(OC)c2)N1` (stereo partly specified): the IC50 in assay [1] turned out to be 6700 nM; in assay [2] it was 14500 nM; in assay [3], 2100 nM.
As to `CON(C)C(=O)[C@@H]1CSC(c2ccccc2)N1` (stereo partly specified), the IC50 in assay [1], in assay [2] and in assay [3] was over 100000 nM throughout.
With `CCCCCCCCCCCCCCCNC(=O)[C@@H]1CSC(c2ccc(NC(C)=O)cc2)N1` (stereo partly specified), the values for the 50% inhibitory concentration (IC50) in assay [1], in assay [2] and in assay [3] were 14300 nM, 1600 nM and 1000 nM, respectively.
For `CCCCCCCCCCCCCCCCNC(=O)[C@@H]1CSC(c2ccc(NC(C)=O)cc2)N1` (stereo partly specified) the same measures were 19100 nM, 2100 nM and 600 nM.
For `CCCCCCCCC/C=C\CCCCCCCNC(=O)[C@@H]1CSC(c2ccc(NC(C)=O)cc2)N1` (stereo partly specified), in that order: 10600 nM, 1400 nM and 1000 nM.
With `CCCCCCCCC/C=C/CCCCCCCNC(=O)[C@@H]1CSC(c2ccc(NC(C)=O)cc2)N1` (stereo partly specified), the IC50 in assay [1] amounted to 18000 nM; in assay [2], 3300 nM; in assay [3], 1400 nM.
For `CCCCCCCCCCCCCCNC(=O)[C@@H]1CSC(c2ccccc2)N1` (stereo partly specified), in that order: 2800 nM, 1900 nM and 600 nM.
`CCCCCCCCCCCCNC(=O)[C@@H]1CSC(c2cc(OC)c(OC)c(OC)c2)N1` (stereo partly specified): the IC50 in assay [1] came out at 2400 nM; in assay [2] it was 2100 nM; in assay [3], 2400 nM.
As to `CCCCCCCCCCCCCCNC(=O)[C@@H]1CSC(c2cc(OC)c(OC)c(OC)c2)N1` (stereo partly specified), the half-maximal inhibitory concentration (IC50) was 2600 nM in assay [1], 2000 nM in assay [2] and 1600 nM in assay [3].
For `CCCCCCCCCCCCNC(=O)[C@@H]1CSC(c2ccc3c(c2)OCO3)N1` (stereo partly specified) the same measures were 5200 nM, 3500 nM and 2500 nM.
In the case of `CCCCCCCCCCCCCCNC(=O)[C@@H]1CSC(c2ccc3c(c2)OCO3)N1` (stereo partly specified), the values for the IC50 in assay [1], in assay [2] and in assay [3] were 4200 nM, 1600 nM and 1000 nM, respectively.
For `CCCCCCCCCCCCCCCCNC(=O)[C@@H]1CSC(c2ccc3c(c2)OCO3)N1` (stereo partly specified) the same measures were 5700 nM, 1600 nM and 1800 nM.
With `CCCCCCCCNC(=O)[C@@H]1CSC(c2cc(OC)c(OC)c(OC)c2)N1` (stereo partly specified), the values for the concentration for half-maximal inhibition (IC50) in assay [1], in assay [2] and in assay [3] were 20800 nM, 17100 nM and 19600 nM, respectively.
For `CCCCCCCCCCNC(=O)[C@@H]1CSC(c2ccc(OC)c(OC)c2)N1` (stereo partly specified) the same measures were 6300 nM, 11900 nM and 6100 nM.
For the compound `CCCCCCCCCCCCCCCCNC(=O)[C@@H]1CSC(c2ccc(N)cc2)N1` (stereo partly specified), the values for the half-inhibitory concentration (IC50) in assay [1], in assay [2] and in assay [3] were 7400 nM, 2300 nM and 1400 nM, respectively.
For `CCCCCCCCCCCCNC(=O)[C@@H]1CSC(c2ccc(OC)c(OC)c2)N1` (stereo partly specified) the same measures were 4500 nM, 2900 nM and 1600 nM.
Consider `CCCCCCCCCCCCCCCCCNC(=O)[C@@H]1CSC(c2ccc(NC(C)=O)cc2)N1` (stereo partly specified), for which the IC50 turned out to be 35800 nM in assay [1], 8500 nM in assay [2] and 2400 nM in assay [3].
For `CCCCCCCCCCNC(=O)[C@@H]1CSC(c2ccc3c(c2)OCO3)N1` (stereo partly specified), the IC50 amounted to 8200 nM in assay [1], 6600 nM in assay [2] and 4500 nM in assay [3].
For `CCCCCCCCCCCCCCNC(=O)[C@@H]1CSC(c2ccc(NC(C)=O)cc2)N1` (stereo partly specified), in that order: 3600 nM, 2300 nM and 600 nM.
Consider `CCCCCCCCCCCCCCCCCCNC(=O)[C@@H]1CSC(c2ccc(NC(C)=O)cc2)N1` (stereo partly specified), for which the IC50 in assay [1] was over 60000 nM; in assay [2], 22300 nM; in assay [3] it was 11600 nM.
Turning to `CCCCCCCCCCCCCCCCNC(=O)[C@@H]1CSC(c2ccc(OC)c(OC)c2)N1` (stereo partly specified), the IC50 in assay [1] was 2100 nM; in assay [2], 1500 nM; in assay [3], 500 nM.
Regarding `CN(C)/N=N/c1[nH]cnc1C(N)=O` [DACARBAZINE], the IC50 in assay [2] and in assay [3] was over 100000 nM each time.
As for `CNC(=O)c1cc(Oc2ccc(NC(=O)Nc3ccc(Cl)c(C(F)(F)F)c3)cc2)ccn1` [SORAFENIB], the half-inhibitory concentration (IC50) in assay [1] was 15100 nM; in assay [2] it was 5400 nM; in assay [3] it was 4900 nM.
